According to patent US20230058623A1, “NOVEL HETEROARYL-TRIAZOLE COMPOUNDS AS PESTICIDES” (Bayer Aktiengesellschaft, priority 2019, published 2023):

Key:
Format in all cases: in vivo
[1] = test system: green peach aphid (Myzus persicae); assay: Myzus persicae spray test; details: foliar, 120 h, after 5 days, Chinese cabbage leaf disks; for mortality at 100 g/ha: application rate 100 g/ha, read-out: activity (mortality)
Procedure, shortened: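 Chinese cabbage leaf disks infested with all aphid instars were sprayed with compound diluted in water containing emulsifier (1000 ppm). Mortality (%) was scored after 5 days, 100% meaning all aphids killed.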

[2] = test system: adult mosquitoes Anopheles funestus strain FUMOZ-R; assay: Anopheles funestus test (ANPHFU surface treatment & contact assay); details: 24 hours after contact, read-out: efficacy (mortality); for mortality at 20 mg/m2: surface concentration 20 mg/m^2, exposure 30 minutes; for mortality at 4 mg/m2: surface concentration 4 mg/m^2, exposure 30 minutes
Experimental: Anopheles funestus Test (ANPHFU Surface Treatment & Contact Assay)
(§1) Solvent: Aceton+2000 ppm rapeseed oil methyl ester (RME)
(§2) In order to produce a sufficient, active ingredient containing solution it is necessary to solve the test compound in the solvent-mix (acetone at 2 mg/ml/RME 2000 ppm). This solution is pipetted onto a glazed tile and after evaporation of the acetone, adult mosquitoes of the species Anopheles funestus strain FUMOZ-R (Hunt et al., Med. Vet. Entomol. 2005 September; 19(3): 271-275) are placed onto the dried surface. The exposure time is 30 minutes.
(§3) Mortality in percent (%) is determined 24 hours after contact of the insects to the treated surface. 100% mortality means that all tested insects are dead, whereas 0% means that no insect died.

[3] = test system: brown planthopper (Nilaparvata lugens); assay: Nilaparvata lugens spray test; details: 96 h, after 4 days, rice plants; for mortality at 100 g/ha: application rate 100 g/ha; for mortality at 500 g/ha: application rate 500 g/ha
Procedure, shortened: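 Rice plants sprayed with compound diluted in water containing 1000 ppm emulsifier, then infested with brown planthopper. Mortality (%) scored after 4 days, 100% meaning all insects killed.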

[4] = test system: cattle ticks (Rhipicephalus microplus) strain Parkhurst, SP-resistant; assay: Rhipicephalus (Boophilus) microplus dip test; details: 168 h, application rate 100 ppm, egg deposition after 7 days, read-out: activity (efficacy: infertile eggs)
Experimental: Rhipicephalus (Boophilus) microplus—Dip Test
Test animal: cattle ticks (Rhipicephalus microplus) strain Parkhurst, SP-resistant
Solvent: dimethyl sulfoxide
To produce a suitable preparation of active compound, 10 mg of active compound are dissolved in 0.5 mL solvent, and the concentrate is diluted with water to the desired concentration.
This compound solution is pipetted into tubes. 8-10 engorged, adult, female cattle ticks (Rhipicephalus microplus) are placed in perforated tubes. These tubes are immersed in the aqueous compound solution until the ticks are completely moistened. After the liquid has drained off, the ticks are transferred to a filter paper in a plastic tray and stored in a climate chamber.
After 7 days egg deposition of fertile eggs is monitored. Eggs where fertility is not visible are stored in a climate chamber till hatching after about 42 days. An efficacy of 100% means all eggs are infertile; 0% means all eggs are fertile.

[5] = test system: larvae of the southern green stink bug (Nezara viridula); assay: Nezara viridula spray test; details: 96 h, after 4 days, barley plants; for mortality at 100 g/ha: application rate 100 g/ha; for mortality at 500 g/ha: application rate 500 g/ha, read-out: activity (mortality)
Procedure, shortened: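 Barley plants sprayed with the active compound in emulsifier-containing water, then infested with stink bug larvae. Mortality scored in % after 4 days, with 100% meaning all insects killed.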

[6] = test system: adult cat fleas (Ctenocephalides felis); assay: Ctenocephalides felis in-vitro contact test, adult cat flea; details: application rate 5 μg/cm^2 (=500 g/ha), after 48 hours, read-out: activity (efficacy: fleas dead or moribund)
Procedure, shortened: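 Acetone solutions of compound were coated onto inner walls of glass tubes (900 ppm giving 5 μg/cm^2) and dried; 5-10 adult C. felis were then held 48 h at room temperature. Efficacy = % fleas dead or moribund, judged by inability to escape a 45-50° C heating plate within 5 min.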

[7] = test system: Rhipicephalus (Boophilus) microplus larvae (strain Parkhurst, resistant against synthetic pyrethroids); assay: Rhipicephalus (Boophilus) microplus in-vitro contact test, larval cattle tick; details: after 48 hours, read-out: activity (efficacy: larvae dead or moribund); for pest or weed control at 1 µg/cm2, 100 g/ha: application rate 1 μg/cm^2 (=100 g/ha); for pest or weed control at 5 µg/cm2, 500 g/ha: application rate 5 μg/cm^2 (=500 g/ha)
Procedure, shortened: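 Acetone solutions were coated onto glass tube walls, giving 5 μg/cm^2 at 900 ppm. Once dry, 20–50 pyrethroid-resistant Parkhurst larvae were added per tube and held 48 h at 27 °C and 85% RH. Efficacy was scored by negative geotaxis as the percentage of dead or moribund larvae.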

[8] = test system: adult mosquitoes Culex quinquefasciatus strain P00; assay: Culex quinquefasciatus test (CULXFA surface treatment & contact assay); details: 24 hours after contact, read-out: efficacy (mortality); for mortality at 20 mg/m2: surface concentration 20 mg/m^2, exposure 30 minutes
Experimental: Culex quinquefasciatus Test (CULXFA Surface Treatment & Contact Assay)
as §1
as §2, with “2 000” for “2000”, “Culex quinquefasciatus” for “Anopheles funestus”, “P00” for “FUMOZ-R (Hunt et al., Med. Vet. Entomol. 2005 September; 19(3): 271-275)”
as §3

Row | Structure (SMILES) | mortality at 100 g/ha [1] | mortality at 500 g/ha ([1]; application rate 500 g/ha) | mortality at 20 mg/m2 [2] | mortality at 100 g/ha [3] | mortality at 500 g/ha [3] | pest or weed control at 100 ppm [4] | mortality at 100 g/ha [5] | mortality at 500 g/ha [5] | pest or weed control at 5 µg/cm2 [6] | pest or weed control at 1 µg/cm2, 100 g/ha [7] | pest or weed control at 5 µg/cm2, 500 g/ha [7] | mortality at 4 mg/m2 [2] | mortality at 20 mg/m2 [8] | mortality at 4 mg/m2 ([8]; surface concentration 4 mg/m^2, exposure 30 minutes)
1 | C[C@H](NC(=O)c1cc(C(F)(F)F)cc(C(F)(F)F)c1)c1ncnn1-c1ccc(C(=O)N2CCOCC2)cn1 [Example I-2] | 100% | 100% | 80 to 100% | 90% | 100% | 100% | 100% | 100% | 100% | 100% | 100% | – | – | –
2 | Cc1nc([C@H](C)NC(=O)c2cc(C(F)(F)F)cc(C(F)(F)F)c2)n(-c2ncc(C(=O)N3CCOCC3)s2)n1 [Example I-4] | 90% | – | – | – | – | – | – | – | 80% | 100% | 100% | – | – | –
3 | CC1CN(C(=O)c2ccc(-n3ncnc3[C@H](C)NC(=O)c3cc(C(F)(F)F)cc(C(F)(F)F)c3)nc2)CC(C)O1 (some centres unmarked) [Example I-5] | 100% | – | 80 to 100% | 90% | – | 100% | – | – | 100% | 100% | 100% | – | – | –
4 | COC1CCCN(C(=O)c2ccc(-n3ncnc3[C@H](C)NC(=O)c3cc(C(F)(F)F)cc(C(F)(F)F)c3)nc2)C1 (some centres unmarked) [Example I-8] | 90% | – | – | 90% | – | 80% | 90% | – | 100% | 100% | 100% | – | – | –
5 | Cc1nc([C@H](C)NC(=O)c2cc(C(F)(F)F)cc(C(F)(F)F)c2)n(-c2ccc(C(=O)N3CCOCC3)cn2)n1 [Example I-9, N-[(1S)-1-{3-methyl-1-[5-(morpholin-4-ylcarbonyl)pyridin-2-yl]-1H-1,2,4-triazol-5-yl}ethyl]-3,5-bis(trifluoromethyl)benzamide] | 100% | – | 80 to 100% | 100% | – | 100% | 100% | – | 100% | 100% | 100% | – | – | –
6 | C[C@H](NC(=O)c1cc(C(F)(F)F)cc(C(F)(F)F)c1)c1ncnn1-c1ccc(C(=O)N2CCCC2)cn1 [Example I-11] | 90% | – | – | – | – | – | 100% | – | 100% | 100% | 100% | – | – | –
7 | COC1CN(C(=O)c2ccc(-n3ncnc3[C@H](C)NC(=O)c3cc(C(F)(F)F)cc(C(F)(F)F)c3)nc2)C1 [Example I-15] | 90% | – | – | – | – | 100% | – | – | 100% | 100% | 100% | – | – | –
8 | Cc1nc([C@H](C)NC(=O)c2cc(Cl)cc(C(F)(F)F)c2)n(-c2ccc(C(=O)N3CC(C)OC(C)C3)cn2)n1 (some centres unmarked) [Example I-29] | 90% | – | – | – | – | – | 90% | – | 100% | 100% | 100% | – | – | –
9 | C[C@@H]1CN(C(=O)c2ccc(-n3ncnc3[C@H](C)NC(=O)c3cc(Cl)cc(C(F)(F)F)c3)nc2)C[C@H](C)O1 [Example I-31] | 100% | – | – | – | – | – | 90% | – | 100% | 100% | 100% | – | – | –
10 | C[C@H](NC(=O)c1cc(Cl)cc(C(F)(F)F)c1)c1ncnn1-c1ccc(C(=O)N2CCS(=O)(=O)CC2)cn1 [Example I-35] | 90% | – | 80 to 100% | 100% | – | – | 100% | – | 100% | 100% | 100% | – | – | –
11 | C[C@H](NC(=O)c1cc(Cl)cc(C(F)(F)F)c1)c1ncnn1-c1ccc(C(=O)N2CCSCC2)cn1 [Example I-36] | 100% | – | 80 to 100% | 100% | – | – | 100% | – | 100% | 100% | 100% | 80 to 100% | – | –
12 | Cc1nc([C@H](C)NC(=O)c2cc(C(F)(F)F)cc(C(F)(F)F)c2)n(-c2ccc(C(=O)N3C[C@@H](C)O[C@@H](C)C3)cn2)n1 [Example I-45] | 100% | – | – | – | – | 80% | 100% | – | 100% | 100% | 100% | – | – | –
13 | C[C@@H]1CN(C(=O)c2ccc(-n3ncnc3[C@H](C)NC(=O)c3cc(C(F)(F)F)cc(C(F)(F)F)c3)nc2)C[C@@H](C)O1 [Example I-46] | 90% | – | – | – | – | 100% | 100% | – | 100% | 100% | 100% | – | – | –
14 | C[C@@H]1CN(C(=O)c2ccc(-n3ncnc3[C@H](C)NC(=O)c3cc(C(F)(F)F)cc(C(F)(F)F)c3)nc2)CCO1 [Example I-69] | 90% | – | 80 to 100% | – | – | – | – | – | 100% | 100% | 100% | 80 to 100% | 80 to 100% | –
15 | C[C@H](NC(=O)c1cc(C(F)(F)F)cc(C(F)(F)F)c1)c1ncnn1-c1ccc(C(=O)N2CCS(=O)(=O)CC2)cn1 [Example I-75] | 100% | – | 80 to 100% | – | 100% | – | – | 100% | 100% | 100% | 100% | 80 to 100% | 80 to 100% | 80 to 100%
16 | C[C@H](NC(=O)c1cc(C(F)(F)F)cc(C(F)(F)F)c1)c1ncnn1-c1ccc(C(=O)N2C[C@H](C)O[C@@H](C)C2)cn1 [Example I-94] | 100% | – | – | 90% | – | 100% | 100% | – | 100% | 100% | 100% | – | – | –
17 | C[C@@H]1CN(C(=O)c2ccc(-n3ncnc3[C@H](C)NC(=O)c3cc(OC(F)(F)F)cc(C4CC4)c3)nc2)C[C@H](C)O1 [Example I-114] | 100% | – | – | – | – | 100% | – | – | 100% | 100% | 100% | – | – | –
